Like-named read-outs stand apart in the source and are kept apart here. No end group written: not given here.
Biological target: T1, GPR103 C327^7.48A (Homo sapiens, UniProt Q96P65, C327A)
T1 construct: we used human full-length QRFPR-encoding plasmids; expressed in transfected cells; host or cells: HEK293 cells (HEK293A in the flow cytometry section), pCAGGS vector
T1 sequence (Q96P65 1-431 C327A): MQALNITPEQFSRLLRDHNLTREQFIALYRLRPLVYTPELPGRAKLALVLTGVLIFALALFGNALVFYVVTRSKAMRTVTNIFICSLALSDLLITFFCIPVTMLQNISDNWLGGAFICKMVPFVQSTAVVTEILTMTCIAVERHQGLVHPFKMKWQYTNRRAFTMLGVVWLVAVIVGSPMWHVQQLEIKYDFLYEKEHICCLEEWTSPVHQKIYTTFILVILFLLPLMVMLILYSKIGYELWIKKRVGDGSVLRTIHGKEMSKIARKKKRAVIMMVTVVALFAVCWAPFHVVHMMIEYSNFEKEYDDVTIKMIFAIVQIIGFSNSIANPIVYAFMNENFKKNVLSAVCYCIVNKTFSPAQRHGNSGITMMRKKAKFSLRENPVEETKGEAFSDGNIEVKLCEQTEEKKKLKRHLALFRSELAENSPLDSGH
Test: TGFα shedding assay; Exp. level WT (1:5)
Assay type: cell-based
Experimental: For the TGFα shedding assay and the flow cytometry analysis, we used human full-length QRFPR-encoding plasmids. Specifically, GPR103 was N-terminally modified with an HA signal sequence followed by a FLAG epitope and then a flexible linker ([…]; the FLAG epitope is underlined) and inserted into the pCAGGS vector. Plasmid encoding GPR103 mutants were generated using Quickchange Site-Directed Mutagensis kit (Agilent).
The TGFα shedding assay was performed as described previously with minor modifications. Plasmid transfection was performed in a 6-well plate with a mixture of 500 ng (per well in a 6-well plate) AP-TGFα-encoding plasmid and 200 ng GPR103-encoding plasmid. After 1-day culture, the transfected cells were harvested by trypsinization, pelleted by centrifugation at 190 × g for 5 min, and washed once with 5 mM HEPES (pH 7.4)-containing Hank’s Balanced Salt Solution (HBSS). After centrifugation, the cells were resuspended in 8 mL of the HEPES-containing HBSS. The cell suspension was seeded in a 96-well culture plate (cell plate) at a volume of 90 μL (per well hereafter) and incubated in a 37 °C incubator with 5% CO2 for 30 min. […] After spinning the cell plates at 190 × g for 2 min, 80 μL of conditioned media was transferred to an empty 96-well plate (conditioned media (CM) plate). Then, 80 μL of AP reaction solution (10 mM p-nitrophenylphosphate (p-NPP), 120 mM Tris-HCl (pH 9.5), 40 mM NaCl, and 10 mM MgCl2) was dispensed into the cell plates and the CM plates. Absorbance at 405 nm of the plates was measured using a microplate reader (SpectraMax 340 PC384, Molecular Devices) before and after 1-h incubation at room temperature. Ligand-induced AP-TGFα release was calculated by subtracting spontaneous AP-TGFα release signal from ligand-induced AP-TGFα release signal. The AP-TGFα release signals were fitted to a four-parameter sigmoidal concentration–response curve, using the Prism 10 software (GraphPad Prism). For each replicate experiment, the pEC50 parameter (negative logarithmic values of EC50 values) of the individual GPR103 mutants were normalized to that of the wild-type GPR103 performed in parallel, and resulting ∆pEC50 values were used to denote ligand response activity of the mutants. […]
Exp. le vel: WT (1:5 0)Exp. le vel: WT (1:5 0)Exp. le vel: WT (1:5 0)Exp. le vel: WT (1:2 0)Exp. le vel: WT (1:2 0)Exp. le vel: WT (1:1 0) […]
L1 4N - t e r mA F2 5N - t e r mA I 2 6N - t e r mA Y 2 9N - t e r mA C 9 82 .5 7A T10 22 .6 1A Exp . l eve l: WT (1 :5)Exp . l evel : >WT (1 :1)Exp. le vel: WT (1:2 0)Exp. le vel: WT (1:2 0)Exp. le vel: WT (1:5 0)Exp . l eve l: WT (1 :1) […]
Exp. le vel: WT (1:1 0)Exp. le vel: WT (1:2 0) C 1 1 83 .2 5AExp. le vel: WT (1:5 0)Exp. le vel: WT (1:5 0)Exp. le vel: WT (1:2 0)Exp . l eve l: WT (1 :5) […]
Exp. le vel: WT (1:5 0)Exp. le vel: WT (1:1 0)Exp. le vel: WT (1:5 0) E203ECL2AExp . l evel : >WT (1 :1)Exp. le vel: WT (1:5 0)Exp. le vel: WT (1:5 0) […]
Exp . l eve l: WT (1 :1) F28Exp. le vel: WT (1:5 0) C 2 8 56 .4 7AExp. le vel: WT (1:2 0) WExp. le vel: WT (1:2 0) F28Exp. le vel: WT (1:5 0)Exp . l evel : >WT (1 :1) […]
Exp. le vel: WT (1:5 0)Exp. le vel: WT (1:5 0) C 3 2 77 .4 8AExp . l eve l: WT (1 :5)Exp . l evel : >WT (1 :1)Exp . l evel : >WT (1 :1) […]
Suppl eme nt ary Figure 1 | Mutational analysis of GPR103. […]
mutants. Data are presented as mean values ± SEM, normally n=3-5; dots), each performed in triplicate. b-d Cell-surface expression (b) and QRFP26-in-duced activation of GPR103 (c, d) were analyzed by the flow cytometry and the TGFα shedding assay, respectively. From the concentration–response curves (a), Emax (c) and ΔpEC50 (d) values relative to the wild type were calculated. Colors in the mutant bars indicate an expression level matching to that of titrated wild type. Statistical analyses were performed using the ordinary one-way ANOVA followed by Dunnett tests with the expression-matched […]

Emax (Exp. #1): 95.99 % WT
Emax (Exp. #2): 96.35 % WT
Emax (Exp. #3): 104.77 % WT
Emax (mean, read-out: Emax): 99%
EC50 (n = 3): 4.27 nM
Emax (n = 3, read-out: Emax): 104 ± 2.3%
Substance: TSGPLGNLAEELNGYSRKKGGFSFRF-NH2 [QRFP26]
